{
  "source": "patent US20210017295A1",
  "about": "“BISPECIFIC BINDING AGENTS AND USES THEREOF” (MEMORIAL SLOAN KETTERING CANCER CENTER, priority 2018, published 2021)",
  "format_in_all_cases": "in vivo, mouse",
  "key": {"HER2(+) BT-474 tumors": {"system": "HER2(+) BT-474 tumors", "test": "Biodistribution with modified BsAb / clearing agent time intervals (same-day PRIT)", "settings": "for average blood uptake / average tumor uptake: 24 h p.i.", "experimental": "During a second set of experiments (Table 31), the BsAb timing interval was varied, as well as the timing interval between the clearing agent and ^177Lu-DOTA-Bn. All animals were sacrificed 24 hours-post-injection of ^177Lu-DOTA-Bn."}, "[1]": {"system": "s.c. HER2(−) MDA-MB-468 tumors", "settings": "24 h p.i."}, "Clinical chemistry panel": {"test": "Clinical chemistry panel", "settings": "small tumors; single-cycle study, 55.5 MBq; ~85 d"}, "[2]": {"test": "Histopathology at necropsy and pathology severity scoring", "settings": "small tumors; single-cycle study; ~85 d; individual animals"}, "[3]": {"test": "Toxicity assessment: weight monitoring and removal criteria"}, "[4]": {"settings": "BsAb for 4 hours, then CA vehicle only (total BsAb circulation 8 hours)"}, "[5]": {"settings": "Table 30 group 3 (increased clearing agent dose)"}, "[6]": {"settings": "MDA-MB-468 HER2(−), PRIT + no CA, mean ± SEM"}, "[7]": {"settings": "medium tumors, single-cycle, 33.3 MBq, ~200 d"}, "[8]": {"settings": "small tumors, single-cycle study, 55.5 MBq, ~85 d"}},
  "note": "Values joined by “and” are separate entries in the source; they are usually repeats but may differ in a detail not shown here. Equal entries are not always repeated.",
  "data": [
    {"smiles": "Nc1ccc(CC2CN(CC(=O)[O-])CCN(CC(=O)[O-])CCN(CC(=O)[O-])CCN2CC(=O)[O-])cc1.[177Lu+3]", "note": "(stereo not drawn) [^177Lu-DOTA-Bn]", "values": [
      {"measurement": "Tumor:Blood ratio", "setting": "HER2(+) BT-474 tumors; [4]", "result": "~3.2"},
      {"measurement": "blood uptake", "setting": "HER2(+) BT-474 tumors; [4]", "result": 12.07, "unit": "% ID/g"},
      {"measurement": "tumor uptake", "setting": "HER2(+) BT-474 tumors; [4]", "result": "~40", "unit": "% ID/g"},
      {"measurement": "average blood uptake", "setting": "HER2(+) BT-474 tumors; Table 30 group 1", "result": 0.06},
      {"measurement": "average tumor uptake", "setting": "HER2(+) BT-474 tumors; Table 30 group 1", "result": 11.62},
      {"measurement": "average blood uptake", "setting": "HER2(+) BT-474 tumors; [5]", "result": 0.03},
      {"measurement": "average tumor uptake", "setting": "HER2(+) BT-474 tumors; [5]", "result": 4.14},
      {"measurement": "tumor uptake in HER2(−) tumors vs HER2(+) BT-474 tumors, fold lower", "setting": "[1]; PRIT, no CA", "result": "~7", "unit": "fold"},
      {"measurement": "^177Lu activity in Blood", "setting": "[1]; [6]", "result": "6.59 ± 1.31", "unit": "% IA/g"},
      {"measurement": "^177Lu activity in Bone", "setting": "[1]; [6]", "result": "0.62 ± 0.17", "unit": "% IA/g"},
      {"measurement": "^177Lu activity in Heart", "setting": "[1]; [6]", "result": "1.78 ± 0.29", "unit": "% IA/g"},
      {"measurement": "^177Lu activity in Kidneys", "setting": "[1]; [6]", "result": "2.39 ± 0.54", "unit": "% IA/g"},
      {"measurement": "^177Lu activity in Large Int.", "setting": "[1]; [6]", "result": "0.35 ± 0.06", "unit": "% IA/g"},
      {"measurement": "^177Lu activity in Liver", "setting": "[1]; [6]", "result": "2.69 ± 0.35", "unit": "% IA/g"},
      {"measurement": "^177Lu activity in Lungs", "setting": "[1]; [6]", "result": "2.44 ± 0.42", "unit": "% IA/g"},
      {"measurement": "^177Lu activity in Muscle", "setting": "[1]; [6]", "result": "0.50 ± 0.14", "unit": "% IA/g"},
      {"measurement": "^177Lu activity in Small Int.", "setting": "[1]; [6]", "result": "0.61 ± 0.11", "unit": "% IA/g"},
      {"measurement": "^177Lu activity in Spleen", "setting": "[1]; [6]", "result": "1.06 ± 0.16", "unit": "% IA/g"},
      {"measurement": "^177Lu activity in Stomach", "setting": "[1]; [6]", "result": "0.27 ± 0.04", "unit": "% IA/g"},
      {"measurement": "^177Lu activity in Tumor", "setting": "[1]; [6]", "result": "2.75±0.17", "unit": "% IA/g"},
      {"measurement": "ALT", "setting": "Clinical chemistry panel", "result": "34 U/L and 40 U/L and 30 U/L and 45 U/L and 24 U/L"},
      {"measurement": "BUN", "setting": "Clinical chemistry panel", "result": "22 mg/dL and 21 mg/dL and 23 mg/dL and 33 mg/dL and 38 mg/dL"},
      {"measurement": "CREA", "setting": "Clinical chemistry panel", "result": "0.20 mg/dL and 0.18 mg/dL and 0.19 mg/dL and 0.30 mg/dL and 0.22 mg/dL"},
      {"measurement": "Histopathologic findings, Bone marrow", "setting": "[2]", "result": "N"},
      {"measurement": "Histopathologic findings, Kidney", "setting": "[2]", "result": "N"},
      {"measurement": "Histopathologic findings, Liver", "setting": "[2]", "result": "N"},
      {"measurement": "Histopathologic findings, Spleen", "setting": "[2]", "result": "HH, 3. and N (2×)"},
      {"measurement": "animals removed: Discovered deceased", "setting": "[3]; [7]", "result": "1/5"},
      {"measurement": "animals removed: Tumor burden", "setting": "[3]; [7]", "result": "4/5"},
      {"measurement": "animals removed: Weight loss", "setting": "[3]; [7]", "result": "0/5"},
      {"measurement": "animals removed: Discovered deceased", "setting": "[3]; [8]", "result": "0/5"},
      {"measurement": "animals removed: Tumor burden", "setting": "[3]; [8]", "result": "0/5"},
      {"measurement": "animals removed: Weight loss", "setting": "[3]; [8]", "result": "0/5"}
    ]}
  ]
}
